# Experimental data taken from USRE40086E1, “Method for treating bacterial infection with novel 7-substituted-9-substituted amino 6-demethyl-6-deoxytetracyclines” (Wyeth Holdings Corporation, priority 1991, dated 2008).
# Columns and labels:
# E. faecalis ATCC 29212 = test: MIC, agar dilution; type: cell-based; settings: E. faecalis ATCC 29212; Table IA; unit assumed
# E. coli PRP1 TetA = test: MIC, agar dilution (Table IA); type: cell-based; settings: unit assumed
# [1] = test system: Ps. acruginosa ATCC 27853; test: MIC, agar dilution (Table IA); type: cell-based; settings: unit assumed
# [2] = test system: E. coli UBMS 89-2 (Sensitive); test: MIC, agar dilution; type: cell-based; settings: E. coli UBMS 89-2 Tet Sens.; Table IA; unit assumed
# E. coli UBMS 90-5 = test: MIC, agar dilution (Table IA); type: cell-based; settings: unit assumed
# [3] = test system: S. aureus ATCC 29213 (Sensitive); test: MIC, agar dilution; type: cell-based; settings: S. aureus ATCC 29213; Table IA; unit assumed
# [4] = test system: Wild Type S30 extract, E. coli strain MRE600 (tetracycline sensitive); test: E. coli in vitro transcription and protein translation, 35S-methionine incorporation (Table VIII)
# E. coli J3272 Tet sens. = test: MIC, agar dilution (Table IA); type: cell-based; settings: unit assumed
# E. coli J3272 TetD = test: MIC, agar dilution (Table IA); type: cell-based; settings: unit assumed
# S. mariescens FDOR 8733 = test: MIC, agar dilution (Table IA); type: cell-based; settings: unit assumed
# [5] = test system: S. aureus UBMS 90-3 (Sensitive); test: MIC, agar dilution; type: cell-based; settings: S. aureus UBMS 90-3; Table IA; unit assumed
# [6] = test system: S. aureus UBMS 88-7 (tetK); test: MIC, agar dilution; type: cell-based; settings: S. aureus UBMS 88-7 TetK; Table IA; unit assumed
# E. faecalis 12201 = test: MIC, agar dilution; type: cell-based; settings: Enterococcus 12201; Table IA; unit assumed
# E. coli UBMS 90-4 (tetM) = test: MIC, agar dilution; type: cell-based; settings: E. coli UBMS 90-4 TetM; Table IA; unit assumed
# [7] = test system: TetM S30 extract, derivative of E. coli MRE600 containing the tetM determinant; test: E. coli in vitro transcription and protein translation, 35S-methionine incorporation (Table VIII)
# E. coli J3272 TetC = test: MIC, agar dilution (Table IA); type: cell-based; settings: unit assumed
# E. coli MC4100 TetB = test: MIC, agar dilution (Table IA); type: cell-based; settings: unit assumed
# E. coli UBMS 88-1 (tetB) = test: MIC, agar dilution; type: cell-based; settings: E. coli UBMS 88-1 TetB; Table IA; unit assumed
# [8] = test system: S. aureus Smith (Sensitive); test: MIC, agar dilution; type: cell-based; settings: S. aureus SMITH (MP); Table IA; unit assumed
# E. coli #311 (MP) = test: MIC, agar dilution (Table IA); type: cell-based; settings: unit assumed
# [9] = test system: S. aureus IVES 2943 (meth. resistant); test: MIC, agar dilution; type: cell-based; settings: S. aureus IVES 2943; Table IA; unit assumed
# [10] = test system: X. maltophilia NEMC 87210; test: MIC, agar dilution (Table IA); type: cell-based; settings: unit assumed
# [11] = test system: S. haemolyticus AVAH 88-3; test: MIC, agar dilution; type: cell-based; settings: S. hemolyticus AVHAH 88-3; Table IA; unit assumed
# [12] = test system: S. aureus UBMS 90-2 (tetM); test: MIC, agar dilution; type: cell-based; settings: S. aureus UBMS 90-2 TetM; Table IA; unit assumed
# E. coli BAJ9003 = test: MIC, agar dilution (Table IA); type: cell-based; settings: unit assumed
# [13] = test system: S. aureus UBMS 90-1 (tetM); test: MIC, agar dilution; type: cell-based; settings: S. aureus UBMS 90-1 TetM; Table IA; unit assumed
# [14] = test system: S. aureus UBMS 88-5 (tetM); test: MIC, agar dilution; type: cell-based; settings: S. aureus UBMS 88-5 TetM; Table IA; unit assumed
# S. aureus NEMC 8769/89-4 = test: MIC, agar dilution (Table IA); type: cell-based; settings: unit assumed
# [15] = test system: S. aureus IVES 1983 (meth. resistant); test: MIC, agar dilution; type: cell-based; settings: S. aureus IVES 1983; Table IA; unit assumed
# E. coli UBMS 89-1 (tetM) = test: MIC, agar dilution; type: cell-based; settings: E. coli UBMS 89-1 TetM; Table IA; unit assumed
# E. coli J2175 = test: MIC, agar dilution (Table IA); type: cell-based; settings: unit assumed
# S. aureus ROSE (MP) = test: MIC, agar dilution (Table IA); type: cell-based; settings: unit assumed
# [16] = test system: S. aureus UBMS 88-4 (Sensitive); test: MIC, agar dilution; type: cell-based; settings: S. aureus UBMS 88-4; Table IA; unit assumed
# E. coli ATCC 25922 = test: MIC, agar dilution; type: cell-based; settings: E. coli ATCC 25922; Table IA; unit assumed
SMILES,Antibacterial activity (MIC) (E. faecalis ATCC 29212),Antibacterial activity (MIC) (E. coli PRP1 TetA),Antibacterial activity (MIC) [1],Antibacterial activity (MIC) [2],Antibacterial activity (MIC) (E. coli UBMS 90-5),Antibacterial activity (MIC) [3],% INHIBITION Wild Type S30 ([4]; 0.06 mg/ml),% INHIBITION Wild Type S30 ([4]; 0.2 mg/ml),% INHIBITION Wild Type S30 ([4]; 1.0 mg/ml),Antibacterial activity (MIC) (E. coli J3272 Tet sens.),Antibacterial activity (MIC) (E. coli J3272 TetD),Antibacterial activity (MIC) (S. mariescens FDOR 8733),Antibacterial activity (MIC) [5],Antibacterial activity (MIC) [6],Antibacterial activity (MIC) (E. faecalis 12201),Antibacterial activity (MIC) (E. coli UBMS 90-4 (tetM)),% INHIBITION TetM S30 ([7]; 0.06 mg/ml),% INHIBITION TetM S30 ([7]; 0.2 mg/ml),% INHIBITION TetM S30 ([7]; 1.0 mg/ml),Antibacterial activity (MIC) (E. coli J3272 TetC),further results
CCNCC(=O)Nc1cc(N(C)C)c2c(c1O)C(=O)C1=C(O)[C@]3(O)C(=O)C(C(N)=O)=C(O)[C@@H](N(C)C)C3CC1C2.Cl.Cl (stereo partly drawn) [OO],0.25 µg/mL,2 µg/mL,16 µg/mL,1 µg/mL,1 µg/mL,1 µg/mL,94%,97%,99%,1 µg/mL,0.5 µg/mL,8 µg/mL,0.5 µg/mL,8 µg/mL,0.25 µg/mL,0.5 µg/mL,87%,95%,99%,2 µg/mL,Antibacterial activity (MIC) (E. coli MC4100 TetB): 1 µg/mL; Antibacterial activity (MIC) (E. coli UBMS 88-1 (tetB)): 1 µg/mL; Antibacterial activity (MIC) [8]: 0.5 µg/mL; Antibacterial activity (MIC) (E. coli #311 (MP)): 1 µg/mL; Antibacterial activity (MIC) [9]: 8 µg/mL; Antibacterial activity (MIC) [10]: 2 µg/mL; Antibacterial activity (MIC) [11]: 1 µg/mL; Antibacterial activity (MIC) [12]: 0.5 µg/mL; Antibacterial activity (MIC) (E. coli BAJ9003): 0.12 µg/mL; Antibacterial activity (MIC) [13]: 1 µg/mL; Antibacterial activity (MIC) [14]: 1 µg/mL; Antibacterial activity (MIC) (S. aureus NEMC 8769/89-4): 0.5 µg/mL; Antibacterial activity (MIC) [15]: 8 µg/mL; Antibacterial activity (MIC) (E. coli UBMS 89-1 (tetM)): 1 µg/mL; Antibacterial activity (MIC) (E. coli J2175): 1 µg/mL; Antibacterial activity (MIC) (S. aureus ROSE (MP)): 8 µg/mL; Antibacterial activity (MIC) [16]: 1 µg/mL; Antibacterial activity (MIC) (E. coli ATCC 25922): 1 µg/mL
"CN(C)c1cc(NC(=O)CNC2CC2)c(O)c2c1CC1CC3C(N(C)C)C(O)=C(C(N)=O)C(=O)C3(O)C(O)=C1C2=O.Cl.Cl (stereo not drawn) [QQ, [4S-(4alpha,12aalpha))-9[[(Cyclopropylamino)acetyl)amino]-4,7-Bis(dimethylamino)-1,4,4a,5,5a,6,11,12a-octahydro-3,10,12,12a-tetrahydroxy-1,11-dioxo-2-naphthacenecarboxamide dihydrochloride]",0.25 µg/mL,32 µg/mL,> 32 µg/mL,2 µg/mL,2 µg/mL,0.5 µg/mL,92%,97%,99%,2 µg/mL,2 µg/mL,> 32 µg/mL,0.5 µg/mL,4 µg/mL,0.5 µg/mL,2 µg/mL,85%,95%,99%,8 µg/mL,Antibacterial activity (MIC) (E. coli MC4100 TetB): 2 µg/mL; Antibacterial activity (MIC) (E. coli UBMS 88-1 (tetB)): 4 µg/mL; Antibacterial activity (MIC) [8]: 0.25 µg/mL; Antibacterial activity (MIC) (E. coli #311 (MP)): 2 µg/mL; Antibacterial activity (MIC) [9]: 16 µg/mL; Antibacterial activity (MIC) [10]: 2 µg/mL; Antibacterial activity (MIC) [11]: 2 µg/mL; Antibacterial activity (MIC) [12]: 0.5 µg/mL; Antibacterial activity (MIC) (E. coli BAJ9003): 0.25 µg/mL; Antibacterial activity (MIC) [13]: 0.5 µg/mL; Antibacterial activity (MIC) [14]: 0.5 µg/mL; Antibacterial activity (MIC) (S. aureus NEMC 8769/89-4): 0.12 µg/mL; Antibacterial activity (MIC) [15]: 8 µg/mL; Antibacterial activity (MIC) (E. coli UBMS 89-1 (tetM)): 1 µg/mL; Antibacterial activity (MIC) (E. coli J2175): 2 µg/mL; Antibacterial activity (MIC) (S. aureus ROSE (MP)): 16 µg/mL; Antibacterial activity (MIC) [16]: 0.5 µg/mL; Antibacterial activity (MIC) (E. coli ATCC 25922): 2 µg/mL
"CN(C)c1cc(NC(=O)Cn2ccnc2)c(O)c2c1CC1CC3[C@H](N(C)C)C(O)=C(C(N)=O)C(=O)[C@@]3(O)C(O)=C1C2=O.Cl.Cl (stereo partly drawn) [VV, [7S-(7alpha,10aalpha)]-N-[9-(Aminocarbonyl)-4,7-bis(dimethylamino)-5,5a,6,6a,7,10,10a,12-octahydro-1,8,10a,11-tetrahydroxy-10,12-dioxo-2-naphthacenyl]-1H-imidazole-1-acetamide dihydrochloride]",4 µg/mL,> 32 µg/mL,> 32 µg/mL,> 32 µg/mL,> 32 µg/mL,8 µg/mL,91%,93%,99%,> 32 µg/mL,> 32 µg/mL,> 32 µg/mL,4 µg/mL,32 µg/mL,4 µg/mL,> 32 µg/mL,79%,92%,98%,> 32 µg/mL,Antibacterial activity (MIC) (E. coli MC4100 TetB): > 32 µg/mL; Antibacterial activity (MIC) (E. coli UBMS 88-1 (tetB)): > 32 µg/mL; Antibacterial activity (MIC) [8]: 4 µg/mL; Antibacterial activity (MIC) (E. coli #311 (MP)): > 32 µg/mL; Antibacterial activity (MIC) [9]: > 32 µg/mL; Antibacterial activity (MIC) [10]: > 32 µg/mL; Antibacterial activity (MIC) [11]: > 32 µg/mL; Antibacterial activity (MIC) [12]: 16 µg/mL; Antibacterial activity (MIC) (E. coli BAJ9003): 1 µg/mL; Antibacterial activity (MIC) [13]: 32 µg/mL; Antibacterial activity (MIC) [14]: 32 µg/mL; Antibacterial activity (MIC) (S. aureus NEMC 8769/89-4): 4 µg/mL; Antibacterial activity (MIC) [15]: > 32 µg/mL; Antibacterial activity (MIC) (E. coli UBMS 89-1 (tetM)): > 32 µg/mL; Antibacterial activity (MIC) (E. coli J2175): > 32 µg/mL; Antibacterial activity (MIC) (S. aureus ROSE (MP)): > 32 µg/mL; Antibacterial activity (MIC) [16]: 8 µg/mL; Antibacterial activity (MIC) (E. coli ATCC 25922): > 32 µg/mL
